Source: patent publication US11116811B2, “Pharmaceutical composition comprising refined indigo naturalis extracts and the use thereof” (Galderma S.A., priority 2015, dated 2021)
Converted amounts (≈) assume the structure as drawn. Each block holds one molecule with its values, some of them ahead of it.

Assays:
[1] = tested on: IL-22 induced psoriasis-like mouse models; assay: IL-22 induced psoriasis-like mouse model, ear thickness; format: in vivo, BABL/c mice; design: AUC of ear thickness: unit not given here
Protocol: • BABL/c mice, male, body weight 19-22 g, purchased from Shanghai SLC AnimalCenter. • Room temperature: 24±1° C. • Room relative humidity: 40-70% • Light cycle: Fluorescent light for 12-hour light (8:00-20:00) 12-hour dark • Animal hosting: 4 mice/cage • Food: Free access to food (irradiated, Shanghai SLAC Laboratory Animal Co. Ltd., China) • Water: Free access to tap water from local supply (first filtered by Molanimal ultrapure water machine from the municipal water supply) Instruments • MJ Research PTC-200 Peltier Thermal cycler (Alpha Unit™ Block Assembly for PTC DNA Engine™ systems) • Applied Biosystems 7500 realtime PCR system • Digimatic micrometer caliper: Mitutoyo, Japan. Accuracy: 0.001 mm Reagents • Recombinant mouse IL-22 (rmIL-22), Novoprotein (sinobio), Cat. C047, Lot. 0375351 • High capacity cDNA Reverse Transcription kit, Applied Biosystems, Part No.: 4368813, Lot: 0909069 • Thermo Scientific ABsolute SYBR Green Rox Mix, Thermo Scientific, Cat: AB-1163/A, Lot: 0911/16 Positive Control • Protopic® (tacrolimus, FK506), 0.1% ointment, Astellas Toyama Co., Ltd. Toyama Plant, H20100079, Lot: 028680. Dosing Regimen
Different concentrations of test samples, vehicle, or 0.1% of FK506 ointment, were topically administrated at 1% one hour after the induction of model and then given daily from day 1 to day 11, twice a day. The first day of administration of a test article was regarded as day 0.
Topical application, b.i.d.
Intradermal injection of 20 μL PBS, either alone or containing 100 or 500 ng recombinant mouse IL-22 (eBiosience), was administered into the ears of anesthetized mice using a 30-gauge needle every other day for eleven days. Ear thicknesses were measured before injection on day 0 and thereafter on days without injections. Ear measurements were taken at the center of the ears using a digimatic micrometer caliper (Mitutoyo).
Twenty-four hours after the last IL-22 treatment, mice were sacrificed, and ears were collected for further analysis.
Results of ear thickness data were expressed as mean±S. E. M. AUC of ear swelling was calculated by the ear thickness data from day 0 to day 11, and analyzed by repeated-measured ANOVA methods with IMP® software. Cytokine protein and gene expression data were evaluated with a one-way ANOVA and followed by student's t-test for post-hoc analysis. (Significance level was set at p<0.05).

NFκB = assay: TNFα-induced NFκB activation reporter assay in 293/NFκB-Luc cells; format: cell-based; conditions: Homo sapiens; TNFα-stimulated 293/NFκB-Luc, luciferase; replicate values separated by /; read-out: pro-inflammatory cytokine production IC50 (NFKB)
Protocol: Cell lysates were prepared by removing media and adding lysis buffer. 5× volume Luciferase Assay Reagent was added to each well prior to read plate. Luminescence was recorded using Perkin-Elmer Victor III plate reader (Perkin-ElmerLife Sciences, Boston, Mass., USA).
All IC50 values were determined by using Xlfit™ software (version 2.0) from ID Business Solutions (Guildford, UK). Background was defined in culture with cells treated with DMSO only and was subtracted for IC50 calculations.

[2] = study 1, IL-22 100 ng in 20 μL i.d.
[3] = study 1, IL-22 500 ng in 20 μL i.d.

Molecule: C=CC[C@@H]1/C=C(\C)C[C@H](C)C[C@H](OC)[C@H]2O[C@@](O)(C(=O)C(=O)N3CCCC[C@H]3C(=O)O[C@H](/C(C)=C/[C@@H]3CC[C@@H](O)[C@H](OC)C3)[C@H](C)[C@@H](O)CC1=O)[C@H](C)C[C@@H]2OC [FK506, tacrolimus]
AUC of ear thickness ([1]; study 2, 0.1% topical b.i.d.): 403 | ear thickness on day 11 ([1]; study 2, 0.1% topical b.i.d.): 256.8 ± 3.5 μm | inhibition of AUC of ear thickness ([1]; study 2, 0.1% topical b.i.d.): 79.2% | AUC of ear thickness ([1]; study 3, 0.1% topical b.i.d.): 369 | ear thickness on day 11 ([1]; study 3, 0.1% topical b.i.d.): 278.8 ± 5.0 μm | inhibition of AUC of ear thickness ([1]; study 3, 0.1% topical b.i.d.): 81.3% | AUC of ear thickness ([1]; study 4, 0.1% topical b.i.d.): 446 | ear thickness on day 11 ([1]; study 4, 0.1% topical b.i.d.): 260.4 ± 4.5 μm | inhibition of AUC of ear thickness ([1]; study 4, 0.1% topical b.i.d.): 80.4% | AUC of ear thickness ([1]; study 5, 0.1% topical b.i.d.): 454 | ear thickness on day 11 ([1]; study 5, 0.1% topical b.i.d.): 263.4 ± 6.3 μm | inhibition of AUC of ear thickness ([1]; study 5, 0.1% topical b.i.d.): 70.4%

IC50 (NFκB): 0.45 ng/mL (≈ 1.28 nM)
Molecule: C=C1CC[C@@H]2[C@](C)(CO)[C@H](O)CC[C@@]2(C)[C@@H]1C/C=C1/C(=O)OC[C@H]1O [LGT, Andrographolide]

B1: IL-22: Recombinant mouse IL-22, injected intradermally into ears to induce the psoriasis-like model (protein, UniProt Q9JJY9 34-179, looked up)
Interleukin-22: LPVNTRCKLEVSNFQQPYIVNRTFMLAKEASLADNNTDVRLIGEKLFRGVSAKDQCYLMKQVLNFTLEDVLLPQSDRFQPYMQEVVPFLTKLSNQLSSCHISGDDQNIQKNVRRLKETVKKLGESGEIKAIGELDLLFMSLRNACV
AUC of ear thickness [1, 2]: 590 | ear thickness on day 11 [1, 2]: 248.3 ± 1.9, μm | ear thickness (d15) ([1]; study 1, IL-22 100 ng in 20 μL i.d., d15): 255.3 ± 15.1 μm | AUC of ear thickness [1, 3]: 1055 | ear thickness on day 11 [1, 3]: 311.3 ± 18.0, μm | ear thickness, second value ([1]; study 1, IL-22 500 ng in 20 μL i.d., second value (day not given)): 296.3 ± 5.0 μm
